In patent US11332438B2, “Creatine prodrugs, compositions and methods of use thereof” (Ultragenyx Pharmaceutical Inc., priority 2017, dated 2022):

What was measured:
[1] = Plasma stability, human plasma; format: in vitro ADME; conditions: Table 2A, 37 °C, read-out: Plasma Stability Human t1/2
Protocol: (§1) The stabilities of creatine prodrugs can be evaluated in one or more in vitro systems using a variety of preparations following methods known in the art. Experimental conditions useful for the in vitro studies are described in Table 1. Prodrug is added to each preparation in triplicate. […]
(§2) Protocol for plasma stability for early screen macrocycles (Method A):
(§3) Frozen plasma was thawed by placing at 37° C. quickly and centrifuged at 3,000 rpm for 8 minutes to remove clots. Then the supernatant was pipetted and pooled as the plasma to be used in the experiment. The plasma was placed on ice until used. The test compounds and reference compounds spiking solution was prepared as a 2.5 mM test compounds spiking solution A: Add 20 μL of 10 mM test compounds stock solution to 60 μL DMSO. 0.1 mM Spiking solution B was prepared: Add 40 μL of spiking solution A to 960 μL of […] Sodium phosphate buffer with 0.5% BSA. […] For 0-min, 400 μL of ACN containing IS was added to the wells of 0-min plate and then 90 μL of plasma was added. […] 50 μL of the supernatant was transferred from each well into a 96-well sample plate containing 120 μL of ultra pure water (Millipore, ZMQS50F01) and analyzed by LC/MS.
(§4) Protocol for plasma stability (Method B):
(§5) The frozen plasma was thawed in a 37° C. water bath and then, if needed, adjusted to pH=7.4 then preheated in a 37° C. incubator. The test article was dissolved in 10% DMSO/water and spiked into plasma pre-plated into 96 well plates at a final concentration of 1 μM. Discrete incubations were performed at 37° C. and included 5 time points: t=0, 2, 5, 15, and 30 min. Samples were then crashed with 4× volume, ice cold 20% water/80% acetonitrile and spun at 4000 g for 10 mins. The supernatant was dried down and reconstituted with water and analyzed by LC-MS/MS. The half life in minute was calculated.

[2] = Plasma stability, mouse plasma; format: in vitro ADME; conditions: Table 2A, 37 °C, read-out: Plasma Stability Mouse t1/2
Protocol: as §1, §2, §3, §4, §5

[3] = Liver microsome stability, human; format: in vitro ADME; conditions: liver microsomes, pH 7.4, Table 2A, read-out: Microsome Stability Human t1/2
Protocol: as §1
(§6) Protocol for Microsomal Stability:
(§7) For reference compound, a 500 μM spiking solution was prepared: add 10 μL of 10 mM DMSO stock solution into 190 μL ACN. […] For test compound, a 5 mM spiking solution was prepared: add 10 μL of 10 mM DMSO stock solution into 10 μL ACN. […] NADPH stock solution (6 mM) was prepared by dissolving NADPH into buffer 0.1 M Potassium Phosphate buffer, 1.0 mM EDTA, pH 7.4. […] For 0-min, 135 μL of ACN containing IS was added to the wells of 0-min plate and then 15 μL of NADPH stock solution (6 mM) was added. 15 μL of NADPH stock solution (6 mM) was added to the samples designated as 0-, 5-, 10-, 20-, 30-min, 60-min; 15 μL of buffer 0.1 M Potassium Phosphate buffer, 1.0 mM EDTA, pH 7.4, was added to the samples designated as 60-min without NADPH. At 5-min, 10-min, 20-min, and 30-min, 60-min 135 μL of ACN containing IS was added to the wells of corresponding plates, respectively, to stop the reaction. […] 50 μL of the supernatant from each well was transferred into a 96-well sample plate containing 50 μL of ultra pure water (Millipore, ZMQS50FOI) and analyzed by LC/MS.

[4] = Liver microsome stability, mouse; format: in vitro ADME; conditions: liver microsomes, pH 7.4, Table 2A, read-out: Microsome Stability Mouse t1/2
Protocol: as §1, §6, §7

[5] = Chemical stability in phosphate buffered saline (PBS); format: physicochemical; conditions: Table 2A, 50 μM prodrug
Protocol: (§8) Chemical stability of creatine prodrugs in phosphate buffered saline (PBS), simulated intestinal fluid (SIF) without pancreatin, simulated gastric fluid (SGF) without pepsin were determined by LC-UV, LC-CAD, LC-UV-CAD or LC-MS/MS as appropriate. Creatine prodrugs of the present disclosure (50 μM) were incubated at 37° C. according to described protocols and prodrug levels were compared between t=0, t=15, t=60, and t=120 mins by peak area ratio to determine the percentage remained at t=120 mins (2 h).
(§9) Protocol for PBS, SIF and SGF stability for screening:
(§10) Prodrugs (50 μM) were incubated in PBS, FaSSIF (Biorelevant) or FaSSGF (Biorelevant) at 37° C.

[6] = Chemical stability in simulated gastric fluid (SGF) without pepsin; format: physicochemical; conditions: Table 2A, 50 μM prodrug
Protocol: as §8, §9, §10

Row | SMILES | half-life [1] [h] | half-life [2] [h] | half-life at 10 μM [3] [h] | half-life at 10 μM [4] [h] | Chemical Stability PBS % T0 at 2 hours at 37 °C. [5] [%] | Chemical Stability SGF, no enzyme % T0 at 2 hours at 37 °C. [6] [%]
1 | [2H]C([2H])([2H])N(CCO)C(=N)NC(=O)CCCCCCCCCC [Compound 9] | > 3 | 0.55 | < 0.0833 | < 0.0833 | 0 | 99
2 | [2H]C([2H])([2H])N(CC(=O)O)C(=N)NC(=O)c1cccnc1 [Compound 21] | > 3 | > 3 | > 2.42 | > 2.42 | 105 | 74
3 | [2H]C([2H])([2H])N(CC(=O)[O-])C(=N)NC(=O)CCCCCCCCCCCC.[Na+] [Compound 29] | > 3 | > 3 | 0.983 | 1.83 | 64 | 91
4 | [2H]C([2H])([2H])N(CC(=O)[O-])C(=N)NC(=O)CCCCCCCCCCC.[Na+] [Compound 31] | > 3 | > 3 | 0.983 | > 2.42 | 98 | 98
5 | [2H]C([2H])([2H])N(CC(=O)[O-])C(=N)NC(=O)CCCCCCCC.[Li+] [Compound 35] | > 3 | > 3 | 1.08 | > 2.42 | 116 | 86

Now from value to molecule:

Row | half-life [1] [h] | half-life [2] [h] | half-life at 10 μM [3] [h] | half-life at 10 μM [4] [h] | Chemical Stability PBS % T0 at 2 hours at 37 °C. [5] [%] | Chemical Stability SGF, no enzyme % T0 at 2 hours at 37 °C. [6] [%] | SMILES
6 | > 3 | > 3 | > 2.42 | > 2.42 | 89 | 72 | [2H]C([2H])([2H])N(CC(=O)[O-])C(=N)NC(=O)CCCC/C=C\CCCCCCCCCCC.[Na+] [Compound 25]
7 | > 3 | > 3 | 1.13 | > 2.42 | 45 | 95 | [2H]C([2H])([2H])N(CC(=O)[O-])C(=N)NC(=O)CCCCC/C=C\CCCCCCCCCC.[Na+] [Compound 26]
8 | > 3 | > 3 | 0.233 | 0.167 | 67 | 96 | [2H]C([2H])([2H])N(CC(=O)[O-])C(=N)NC(=O)CCCCCCCCCC/C=C\CCCCC.[Na+] [Compound 27]
9 | > 3 | > 3 | 1.5 | 1.4 | 51 | 99 | [2H]C([2H])([2H])N(CC(=O)O)C(=N)NC(=O)CCCCCCC/C=C\CCCCCC [Compound 28]
10 | > 3 | > 3 | 1.2 | 1.77 | 85 | 79 | [2H]C([2H])([2H])N(CC(=O)[O-])C(=N)NC(=O)CCCCCCCCCC.[K+] [Compound 33]
